This is an account of results in US11655268B2, “Nucleoside or nucleotide derivatives, and uses thereof” (ST Pharm Co., Ltd., priority 2018, dated 2023).

The nature of series [1]: in vitro. The conditions noted are these: human.
Series [2] deals with MERS-CoV. In words: microbe, parasite or virus in culture. The format is cell-based, MERS virus (MERS-CoV/KOR/KNIH/002_05_2015). To be noted: Middle East respiratory syndrome-related coronavirus, Huh-7, 72 h, read-out: EC50 MERS-CoV.
Series [3] is described as follows: in vitro. To be noted: dog.
Series [4] relates to Influenza virus B/Lee/40. In words: Cytopathic effect reduction, influenza B Lee in MDCK cells, MTT. The format is cell-based. To be noted: for Selectivity index FluB Lee: CC50/EC50; for EC50: MDCK, 72 h, read-out: Anti-Flu activity EC50 FluB Lee.
Series [5] in a line: in vitro. To be noted: cat.
Series [6] can be described thus: Cytotoxicity (CC50) in Vero cells. To be noted: African green monkey, CC50 (DENV), Vero cells, DENV test.
In series [7] the test system is FIPV. In words: Cytopathic effect reduction, FIPV in CRFK cells, MTT. The class given is cell-based, feline infectious peritonitis virus (FIPV). The conditions noted are these: read-out: EC50 FIPV. For orientation: Cytopathic effects are the visible damage that an infection or toxin causes in cultured cells.
Series [8] has as its system MRC-5 cells.
In series [9] the test system is DENV. In words: Reduction in viral infection, dengue virus in Vero cells, immunofluorescence (4G2 antibody). To be noted: 72 h, read-out: EC50 DENV. The class given is cell-based, Dengue virus New Guinea C (NGC).
Series [10] has as its system hCoV (229E). In words: microbe, parasite or virus in culture. To be noted: MRC5, 72 h, read-out: EC50 hCoV (229E). The format is cell-based, Human coronavirus hCoV 229E.
The test system of series [11] is hCoV (OC43). In words: Cytopathic effect reduction, hCoV OC43 in MRC-5 cells, MTT. To be noted: Betacoronavirus 1, OC43, MRC5, 72 h, read-out: EC50 hCoV (OC43). The format is cell-based, Human coronavirus hCoV OC43.
A short description of series [12]: in vitro. To be noted: human. This is another data set of the same source.
The mark [13] stands for this setting: Alphacoronavirus 1, 72 h, CRFK cells, day 3 after infection.
Setting [14] is: read-out: CC50 (hCoV OC43), MRC-5 cells, day 3.
[15] abbreviates: MRC-5 cells, day 3 after infection.

For orientation: EC50 means the midpoint of the concentration-response curve.

The structures appear in SMILES notation. Read-outs that look alike come from different tables or passages of the source.

`Cc1ccc(C(=O)Nc2ccn(C3O[C@H](CO)[C@@H](O)[C@H]3F)c(=O)n2)cn1` (stereo in doubt) [Example 32, N-(1-((2S,3R,4R,5R)-3-fluoro-4-hydroxy-5-(hydroxymethyl)tetrahydrofuran-2-yl)-2-oxo-1,2-dihydropyrimidin-4-yl)-6-methylnicotinamide]: the CC50 at 3 days in [1] was above 100 µM. In series [2], the EC50 was above 100 µM.

As to `Cc1cncc(C(=O)Nc2ccn(C3O[C@H](CO)[C@@H](O)[C@H]3F)c(=O)n2)n1` (stereo in doubt) [Example 34, N-(1-((2S,3R,4R,5R)-3-fluoro-4-hydroxy-5-(hydroxymethyl)tetrahydrofuran-2-yl)-2-oxo-1,2-dihydropyrimidin-4-yl)-6-methylpyrazine-2-carboxamide], the CC50 at 3 days in series [1] and in series [3] was above 100 µM each time. Besides, the EC50 in [2] was above 100 µM; in [4], 11.1 µM. In addition, the “Selectivity index FluB Lee” value in series [4] is reported as above 9.0.

As to `O=C(Nc1ccn(C2O[C@H](CO)[C@@H](O)[C@H]2F)c(=O)n1)c1ccc(F)cn1` (stereo in doubt) [Example 35, 5-Fluoro-N-(1-((2S,3R,4R,5R)-3-fluoro-4-hydroxy-5-(hydroxymethyl)tetrahydrofuran-2-yl)-2-oxo-1,2-dihydropyrimidin-4-yl)picolinamide], the CC50 at 3 days in [1] and in [3] was above 100 µM in each case. Also, the EC50 was above 100 µM in [2] and 37.4 µM in [4]. The “Selectivity index FluB Lee” value in series [4] is recorded as above 2.7.

Regarding `O=C(Nc1ccn([C@@H]2O[C@H](CO)[C@@H](O)C2(F)F)c(=O)n1)c1cccnc1` [Example 1, N-(1-((2R,4R,5R)-3,3-difluoro-4-hydroxy-5-(hydroxymethyl)tetrahydrofuran-2-yl)-2-oxo-1,2-dihydropyrimidin-4-yl)nicotinamide], the CC50 at 3 days in series [1], in [3] and in series [6] was above 100 µM each time. For the same compound, the CC50 in [5] is 56 µM; in [8] (human), above 100 µM; in series [12], above 100 µM. Moreover, the 50% effective concentration (EC50) in [7] (Alphacoronavirus 1, CRFK, 72 h) is 25 µM; in series [9], 3.42 µM; in series [10], 4.6 µM; in series [11] it was 76 µM; in series [2] it was 10.4 µM; in series [4] it was 8.6 µM. Also, the “Selectivity index FluB Lee” value in [4] is given as above 34.9.

With `O=C(Nc1ccn([C@@H]2O[C@H](CO)[C@@H](O)C2(F)F)c(=O)n1)c1ccccn1` [Example 2, N-(1-((2R,4R,5R)-3,3-difluoro-4-hydroxy-5-(hydroxymethyl)tetrahydrofuran-2-yl)-2-oxo-1,2-dihydropyrimidin-4-yl)picolinamide], the CC50 at 3 days in series [1], in [3] and in [6] was above 100 µM each time. Further, the CC50 in series [5], in [8] (human) and in series [12] was above 100 µM in each case. Also, the EC50 was 9.1 µM in series [7] (Alphacoronavirus 1, CRFK, 72 h); 0.72 µM in [9]; 0.8 µM in [10]; above 100 µM in [11]; 1.8 µM in series [2]; 2.2 µM in [4]. In addition, the “Selectivity index FluB Lee” value in [4] was above 136.4.

For the compound `Cc1ccc(C(=O)Nc2ccn([C@@H]3O[C@H](CO)[C@@H](O)C3(F)F)c(=O)n2)cn1` [Example 4, N-(1-((2R,4R,5R)-3,3-difluoro-4-hydroxy-5-(hydroxymethyl)tetrahydrofuran-2-yl)-2-oxo-1,2-dihydropyrimidin-4-yl)-6-methylnicotinamide], the CC50 at 3 days in series [1], in series [3] and in series [6] was above 100 µM in each case. Besides, the CC50 in [5], in series [8] (human) and in series [12] was above 100 µM throughout. Besides, the EC50 in series [7] (Alphacoronavirus 1, CRFK, 72 h) was 8.1 µM; in series [9], 0.71 µM; in series [10], 11.1 µM; in series [11], above 100 µM; in [2], 2.2 µM; in series [4] it was 1.9 µM. In addition, the “Selectivity index FluB Lee” value in series [4] is above 157.9.

`O=C1CCCN1c1ccn([C@@H]2O[C@H](CO)[C@@H](O)C2(F)F)c(=O)n1` [Example 7]: the CC50 at 3 days in [3] and in [6] was above 100 µM each time. Moreover, the CC50 in series [5], in series [8] (setting [14]) and in series [12] was above 100 µM in each case. In addition, the concentration for a half-maximal effect (EC50) in [7] (setting [13]) was 77 µM; in [9], 15.7 µM; in [10] (setting [15]), 17.6 µM; in series [11] (setting [15]) it was above 100 µM; in [4], 9.4 µM. For the same compound, the “Selectivity index FluB Lee” value in [4] is recorded as above 10.6.

For `O=C(Nc1ccn([C@@H]2O[C@H](CO)[C@@H](O)C2(F)F)c(=O)n1)c1ccc(F)cn1` [Example 9, N-(1-((2R,4R,5R)-3,3-difluoro-4-hydroxy-5-(hydroxymethyl)tetrahydrofuran-2-yl)-2-oxo-1,2-dihydropyrimidin-4-yl)-5-fluoropicolinamide], the CC50 at 3 days in series [3] and in [6] was above 100 µM each time. For the same compound, the CC50 in series [5], in series [8] (setting [14]) and in series [12] was above 100 µM throughout. For the same compound, the EC50 was 18 µM in series [7] (setting [13]); 1.34 µM in [9]; 2.4 µM in series [10] (setting [15]); above 100 µM in [11] (setting [15]); 6.1 µM in series [4]. In addition, the “Selectivity index FluB Lee” value in [4] is reported as above 16.4.

On to `Cc1ccc(C(=O)Nc2ccn([C@@H]3O[C@H](CO)[C@@H](O)C3(F)F)c(=O)n2)nc1` [Example 10, N-(1-((2R,4R,5R)-3,3-difluoro-4-hydroxy-5-(hydroxymethyl)tetrahydrofuran-2-yl)-2-oxo-1,2-dihydropyrimidin-4-yl)-5-methylpicolinamide], for which the CC50 at 3 days in series [3] and in series [6] was above 100 µM in each case. The CC50 in [5] was 92 µM; in series [8] (setting [14]), above 100 µM; in series [12], above 100 µM. The concentration giving a half-maximal response (EC50) in series [7] (setting [13]) was 21 µM; in [9] it was 2.53 µM; in [10] (setting [15]) it was 7.4 µM; in series [11] (setting [15]), above 100 µM; in series [4], 9.8 µM. For the same compound, in [4], the “Selectivity index FluB Lee” value is on record as above 10.2.

Take `Cc1cccnc1C(=O)Nc1ccn([C@@H]2O[C@H](CO)[C@@H](O)C2(F)F)c(=O)n1` [Example 12, N-(1-((2R,4R,5R)-3,3-difluoro-4-hydroxy-5-(hydroxymethyl)tetrahydrofuran-2-yl)-2-oxo-1,2-dihydropyrimidin-4-yl)-3-methylpicolinamide]: the CC50 at 3 days in series [3] and in series [6] was above 100 µM in each case. In addition, the half-maximal effective concentration (EC50) turned out to be 6.16 µM in series [9], 12.2 µM in series [10] (setting [15]) and 49.1 µM in series [4]. The CC50 in series [12] is above 100 µM. Moreover, the “Selectivity index FluB Lee” value in series [4] is recorded as above 2.0.

Take `Cc1cccc(C(=O)Nc2ccn([C@@H]3O[C@H](CO)[C@@H](O)C3(F)F)c(=O)n2)n1` [Example 13, N-(1-((2R,4R,5R)-3,3-difluoro-4-hydroxy-5-(hydroxymethyl)tetrahydrofuran-2-yl)-2-oxo-1,2-dihydropyrimidin-4-yl)-6-methylpicolinamide]: the CC50 at 3 days in [3] and in series [6] was above 100 µM throughout. Besides, the EC50 turned out to be 1.98 µM in series [9], 5.8 µM in series [10] (setting [15]) and 7.8 µM in [4]. In series [12], this compound registered a CC50 above 100 µM. Moreover, the “Selectivity index FluB Lee” value in [4] is above 12.8.
